# Measured values taken from patent publication US20220087970A1, “PREVENTION OF ANESTHETIC-INDUCED NEUROCOGNITIVE DYSFUNCTION” (The Johns Hopkins University, priority 2019, published 2022).
# Legend:
# Type in all cases: in vivo
# C57BL6 mice = assay: Novel object recognition at PND21; conditions: mean ±SD, in s (unit assumed)
# Method: 1.3.2 Anesthesia, Peptide, and Molsidomine Injections. PND7 control and experimental mice were placed in a clear plastic cone and body temperature maintained by a heating blanket set to 35° C. Vital signs and physiological monitoring were assessed using PhysioSuite® (Kent Scientific Corporation, Torrington, Conn., USA) and blood gasses were collected arterially. […] Note that lower concentrations of 02 can be used, e.g., between 20% to 100% 02, including 20%, 25%, 30%, 35%, 40%, 45%, 50%, 55%, 60%, 65%, 70%, 75%, 80%, 85%, 90%, 95%, 96%, 97%, 98%, 99%, and 100% 02. Naïve animals were left with the dams. Anesthesia was initiated with 2.4% ISO in 100% oxygen for 2 min and tapered down to 1.5% within 15 min. Exposure to 1.5% ISO was continued for 3 hours and 45 min (total 4 hours ISO). Control ‘CON’ animals were exposed to 100% oxygen only. At the end of the exposure animals were maintained in oxygen on the heating blanket for 10 min then returned to dams. […] Tao and Johns, 2008. A single injection of peptide was given ip. Separate peptide cohorts were injected in parallel with mice undergoing exposure to anesthesia or O2 control. Purification of fusion peptides was performed by Creative BioMart (Shirley, N.Y.) and verified by Coomassie blue staining and Western blot analysis and then stored in 10% glycerol/phosphate buffered saline at −80° C. until use. The Tat-PSD-95 PDZ2WT and MUT plasmids used to generate proteins containing an amino-terminal, in-frame, 11-amino-acid, minimal transduction domain (residues 47-57 of human immunodeficiency virus Tat protein) termed Tat. […] Fang et al., 2003. The NO donor molsidomine [(N-[ethoxycarbonyl]-3-[4-morpholinosydnomine] (Sigma, St. Louis, Mo.) was injected at 4 mg/kg into mice ip in 100 μL sterile saline as previously described. The NO donor was added immediately following cessation of anesthesia or control (O2) exposure, i.e., the NO donor was injected 4 hours after onset of anesthesia. One of ordinary skill in the art upon review of the present disclosure would appreciate that the NO donor could be administered at other times during anesthesia, including at the onset of anesthesia. Control animals were injected ip with the vehicle (saline).
# 1.3.7 Novel Object Recognition. The novel object recognition (NOR) procedure was based upon the original Ennaceur et al., 1988, procedure and was used to assess nonspatial hippocampal memory. Clark et al., 2000; Baker and Kim, 2002; Reger et al., 2009. It consisted of a training ‘familiarization’ phase followed by a testing phase. During training, mice were allowed to freely explore within an opaque box (40 cm W×40 cm L×34 cm H) containing two identical objects for 10 min. Data were recorded with a video camera and time spent with each object was recorded using ANYmaze software (Stoelting). Object investigation time was determined by the amount of time the mouse spent in the zone immediately surrounding the object. […] After 2 h, object recognition was tested, using the same procedure as in training except that a novel object was substituted for one of the familiar training objects and mice were allowed to explore for 5 min. Mice inherently prefer to explore novel objects; thus, a preference for the novel object indicates intact memory for the familiar object.
# caspase-3 = assay: Western blot for cleaved caspase-3 (apoptosis) after PND7 exposure; conditions: PND7 mice, 4 h treatment (1.5% ISO in 100% O2 or peptide 8 mg/kg ip), 2 h following cessation of exposure
# Method: 1.3.2 Anesthesia, Peptide, and Molsidomine Injections. PND7 control and experimental mice were placed in a clear plastic cone and body temperature maintained by a heating blanket set to 35° C. Vital signs and physiological monitoring were assessed using PhysioSuite® (Kent Scientific Corporation, Torrington, Conn., USA) and blood gasses were collected arterially. […] Note that lower concentrations of 02 can be used, e.g., between 20% to 100% 02, including 20%, 25%, 30%, 35%, 40%, 45%, 50%, 55%, 60%, 65%, 70%, 75%, 80%, 85%, 90%, 95%, 96%, 97%, 98%, 99%, and 100% 02. Naïve animals were left with the dams. Anesthesia was initiated with 2.4% ISO in 100% oxygen for 2 min and tapered down to 1.5% within 15 min. Exposure to 1.5% ISO was continued for 3 hours and 45 min (total 4 hours ISO). Control ‘CON’ animals were exposed to 100% oxygen only. At the end of the exposure animals were maintained in oxygen on the heating blanket for 10 min then returned to dams. […] Tao and Johns, 2008. A single injection of peptide was given ip. Separate peptide cohorts were injected in parallel with mice undergoing exposure to anesthesia or O2 control. […]
# 1.3.3 Western Blotting. […] Proteins were detected by enhanced chemiluminescence (Amersham, Piscataway, N.J.). […]
# SAP102 = assay: Western blot of hippocampal synaptic fractions: SAP102; conditions: one day after PND7 mice exposed to isoflurane (1.5% ISO in O2, 4 h)
# Method: One day after PND7 mice were exposed to isoflurane (1.5% ISO in O2, 4 h), we harvested hippocampal tissues for Western blotting to assess the expression of receptors and MAGUKs. […] (N=9). A *p<0.05 was considered significant. […] Data shown as % actin;
# [1] = PSD93KO mice exposed to ISO at PND7, tested at PND21
# [2] = WT mice exposed at PND7, tested at PND21
smiles,measurement,setting,value
"FC(F)OC(Cl)C(F)(F)F (racemic) [ISO, (RS)-2-chloro-2-(difluoromethoxy)-1,1,1-trifluoroethane]",investigation time of the known object,C57BL6 mice; [1],29±13
same,investigation time of the novel object,C57BL6 mice; [1],42±20
same,investigation time of the known object,C57BL6 mice; [2],18±12
same,investigation time of the novel object,C57BL6 mice; [2],29±11
same,cleaved caspase-3 (Western blot),caspase-3,did not yield any detectable cleaved caspase
same,amount of SAP102 in synaptic fractions,SAP102,significant increase
